Measured values from patent publication US20050233413A1, “Neuroprotective polypeptides and methods of use” (priority 2002, published 2005).
Where two headings read alike, the source gives them in different places. Where a SMILES comes first, the peptide text is derived from it. Where no end group is shown, it is not given here. [ ]: non-standard residue; d: D form.

Experiments:
[1] = test system: F11 cells transfected with V642I-APP, NL-APP, M146L-PS1 or N141I-PS2 cDNA; assay type: cell-based, rat/mouse hybrid; settings: for concentration of full cytoprotection against FAD genes / IC50: each of V642I-APP; for IC50: read-out: IC50 of suppression of neuronal cell death by FAD genes
Excerpt: (§1) F11 cells, the hybrid of a rat embryonic-day-13 primary cultured primary neuron and a mouse neuroblastoma cell, are one of the best models for primary cultured neurons as they carry representative characteristics of primary neurons, such as generation of action potentials without differentiation by NGF [22]. They have been used in various studies of is neuronal functions. Using these cells, the underlying mechanisms for cytotoxicity by V642I-APP have well been analyzed. Cytotoxicity by V642 mutants of APP has also been confirmed in multiple different systems. F11 cells were grown in Ham's F-12 (GibcoBRL, Gaithersburg, Md.) plus 18% fetal bovine serum (FBS; Hyclone, Logan, Utah) and antibiotics, as described previously. F11 cells (7×10^4 cell/well in a 6-well plate cultured in Ham's F-12 plus 18% FBS for 12-16 hr) were transfected with plasmids encoding FAD genes by lipofection [FAD cDNA 2 μg, LipofectAMINE 4 μl, PLUS reagent 8 μl (GibcoBRL)] in the absence of serum for 3 hr, and were incubated with Ham's F-12 plus 18% FBS for 2 hr. Then, culture media were changed to Ham's F-12 plus 10% FBS with or without HN peptides, and cells were cultured for an additional 67 hr. Seventy-two hr after transfection, cell mortality was measured by Trypan blue exclusion assay, performed as follows. Cells were suspended by pipetting gently, and 50 μl of 0.4% (finally 0.08%) Trypan blue solution (Sigma, St Louis, Mo.) was mixed with 200 μl of the cell suspension at room temperature. Stained cells were counted within 3 min after the mixture with Trypan blue solution.

[2] = test system: Aβ and four FAD genes (V642I-APP, NL-APP, M146L-PS1, and N141I-PS2); assay type: cell-based; settings: for Full protection (minimal concentration that exerted full cytoprotection): Table 5, marked *
Excerpt: as §1
(§2) The primary culture of mouse cortical neurons was performed in poly-L-lysine-coated 24-well plates or 96-well plates (Sumitomo Bakelite, Akita, Japan), in the absence of serum and the presence of N2 supplement, as described previously. The purity of neurons by this method was >98%. Prepared neurons (for neurons seeded in 96-well plates: 2.5×10^4 or 5×10^4 cells/well, 100 μl culture medium/well; for neurons seeded in 24-well plates: 1.25×10^5 cells/well, 250 μl culture medium/well) were preincubated with or without 10 μM (in case for the experiment with 10 μM HN) synthetic HN for 16 hr, and treated with 25 μM Aβ in the presence or absence of 10 μM HN for 72 hr, respectively. As primary neurons were vulnerable to transient dryness during medium exchange, we treated neurons with 25 μM Aβ as follows. First, a half volume (50 μl for neurons in 96-well plates; 125 μl for neurons in 24-well plates) of old medium was discarded. Then, the same volume (50 μl for neurons in 96-well plates; 125 μl for neurons in 24-well plates) of prewarned fresh medium containing 10 μM HN and 50 μM Aβ (Aβ was directly resolved) was added to the culture. The Aβ peptides used at 25 μM to induce neurotoxicity formed aggregation in the medium during the cell culture at 37° C. for 72 hr. as described. The WST-8 cell viability assay was performed, using Cell Counting Kit-8 (Wako Pure Chemical Industries, Osaka, Japan), as described previously.
(§3) Calcein assay was performed with Calcein-AM {3′,6′-di-(O-acetyl)-2′,7′-bis [N,N-bis(carboxymethyl)aminomethyl] fluorescein, tetraacetoxymethyl ester; Dojindo}, as described previously. These assays were simultaneously performed in the experiments with neurons seeded in 96-well plates, as follows. Seventy-two hours after Aβ treatment, cells were added with the mixture of 10 μl WST-8 solution and 1 μl of 600 μM Calcein-AM. After 2 hr incubation in a CO2 incubator at 37° C., WST-8 absorbance was measured as OD450. After exchanging the medium to PBS to lower the background, Calcein-specific fluorescence (ex=485 nm, em=535 nm) was observed by fluorescence microscopy or measured by a spectrofluorometer (Wallac1420 ARVOsx Multi Label Counter). […]

[3] = test system: V642I-APP, NL-APP, M146L-PS1, N141I-PS2 holoprotein expression in F11 cells; experiment: Immunoblot analysis of transfected FAD gene expression; assay type: cell-based, rat/mouse hybrid; settings: F11 cells treated with peptide
Protocol: Immunoblot analysis was performed as described. For the analysis of transfected FAD gene expression, lysates (20 μg/lane) from cells transfected with each FAD gene (V642I-APP, NL-APP, M146L-PS1, N141I-PS2) were submitted to SDS-PAGE and were electrically blotted to a PVDF sheet. After blocking, the sheet was soaked with antibodies [for APP mutants: 5 μg/ml 22C11 (CHEMICON, Temecula, Calif.); for PS1 mutant: 1/2000 of anti-PS1 N-terminus antibody (CHEMICON) for PS2 mutant: 1/500 of anti-PS2 antibody (Cell Signaling Technology, Beverly, Mass.)] and then with HRP-labeled secondary antibodies. The antigenic bands were visualized by ECL (Amersham Pharmacia Biotech, Uppsala, Sweden).

[4] = test system: primary cultured neurons treated with 25 μM Aβ1-43; assay type: cell-based; settings: for concentration of full neuroprotection against Aβ1-43 / suppression of Aβ neurotoxicity in the presence of 100 μM EFLIVIKS: 25 μM Aβ1-43; for suppression of Aβ neurotoxicity in the presence of 100 μM EFLIVIKS: EF-HN and EF-HNG at 10 μM, WST-8 and Calcein assays; for potency of neuroprotection against Aβ relative to HN: times as high as / higher than authentic HN
Protocol: (§4) In one assay, transfection with V642I-APP causes cell death in F11 neuronal hybrid cells. In the other, treatment with Aβ peptides causes cell death in primary cultured cortical neurons.
as §2
Calcein assay was performed with Calcein-AM {3′,6′-di-(O-acetyl)-2′,7′-bis [N,N-bis(carboxymethyl)aminomethyl] fluorescein, tetraacetoxymethyl ester; Dojindo}, as described previously. These assays were simultaneously performed in the experiments with neurons seeded in 96-well plates, as follows. Seventy-two hours after Aβ treatment, cells were added with the mixture of 10 μl WST-8 solution and 1 μl of 600 μM Calcein-AM. After 2 hr incubation in a CO2 incubator at 37° C., WST-8 absorbance was measured as OD450. After exchanging the medium to PBS to lower the background, Calcein-specific fluorescence (ex=485 nm, em=535 nm) was observed by fluorescence microscopy or measured by a spectrofluorometer (Wallac1420 ARVOsx Multi Label Counter). Most cell viability data using Calcein assay and WST-8 assay were obtained from neurons seeded at 5×10^4 cells/well in 96-well plates (high-density neurons) and confirmed by both assays with the cells seeded at 2.5×10^4 cells/well (low-density neurons).
Some experiments for Calcein assay were performed with neurons seeded in 24-well plates. […] In most experiments using primary neurons, four independent experiments were performed and the means? S. D. of the results were discussed.

[5] = Apparent stability of peptides in the culture medium; assay type: physicochemical; settings: 72-hr incubation of 10 μM peptides in the cultured medium; data not shown
Excerpt: The Ser^7 residue plays a role different from that of Ser^14. S7A substitution nullified the action of HN, while Ser^7 racemation had no influence. […] Given the fact that EFLIVIKS or EFLIVKS is the established amino acid sequence to form a dimer and that EFLIVIKS alone had no cytoprotective action, it is most likely that Ser^7 is essential for HN to self-dimerize and that self-dimerization of HN is essential for the action of HN. […] This level of stability alterations could not account for the drastic potentiation of the rescue action by the fusion with EFLIVIKS.

[6] = test system: F11 cells transfected with V642I-APP cDNA; experiment: F11 cell death by V642I-APP transfection (Trypan blue exclusion); assay type: cell-based; settings: times higher than that of HN
Excerpt: as §4, §1

Aβ and V642I-APP = assay type: cell-based; settings: Table 5, marked **
Excerpt: as §1, §2, §3

[7] = test system: Aβ and four FAD genes (V642I-APP, NL-APP, M146L-PS1, and N141I-PS2); settings: cited from earlier work

Molecule: CC[C@H](C)[C@H](NC(=O)[C@H](CCC(=O)O)NC(=O)[C@@H](CO)NC(=O)[C@@H](NC(=O)[C@H](CC(C)C)NC(=O)[C@H](CC(C)C)NC(=O)[C@H](CC(C)C)NC(=O)[C@H](CC(C)C)NC(=O)[C@H](CS)NC(=O)[C@H](CO)NC(=O)[C@H](C)NC(=O)CNC(=O)[C@H](C)NC(=O)[C@@H]1CCCN1)[C@@H](C)O)C(=O)N[C@@H](CC(=O)O)C(=O)N[C@@H](CC(C)C)C(=O)N1CCC[C@H]1C(=O)O [AGA-(D-Ser14)HN17, PAGASCLLLLT(D-Ser)EIDLP] (H-PAGASCLLLLT[dS]EIDLP-OH; N-terminus and C-terminus assumed)
- concentration of full cytoprotection against FAD genes [1]: 100 pM
- IC50 [1]: ~0.01 nM
- IC50 [2]: 0.01 to 0.1 nM
- action potency compared with another peptide (in words) [2]: as potent as AGAD-Ser^14)HN
- Full protection (minimal concentration that exerted full cytoprotection) [2]: ˜100 pM
- CMV-promoter-driven expression of V642I-APP, NL-APP, M146L-PS1, or N141I-PS2 holoprotein [3]: did not suppress

Molecule: CC[C@H](C)[C@H](NC(=O)[C@H](CCC(=O)O)NC(=O)[C@@H](CO)NC(=O)[C@@H](NC(=O)[C@H](CC(C)C)NC(=O)[C@H](CC(C)C)NC(=O)[C@H](CC(C)C)NC(=O)[C@H](CC(C)C)NC(=O)[C@H](CS)NC(=O)[C@H](CO)NC(=O)[C@H](C)NC(=O)CNC(=O)[C@H](C)NC(=O)[C@@H]1CCCN1C(=O)[C@H](C)NC(=O)[C@@H](N)CCSC)[C@@H](C)O)C(=O)N[C@@H](CC(=O)O)C(=O)N[C@@H](CC(C)C)C(=O)N1CCC[C@H]1C(=O)N[C@H](C(=O)N[C@@H](CCCCN)C(=O)N[C@@H](CCCNC(=N)N)C(=O)N[C@@H](CCCNC(=N)N)C(=O)N[C@@H](C)C(=O)O)C(C)C [AGA-(D-Ser14)HN, MAPAGASCLLLLT(D-Ser)EIDLPVKRRA] (H-MAPAGASCLLLLT[dS]EIDLPVKRRA-OH; N-terminus and C-terminus assumed)
- concentration of full cytoprotection [2]: 100 pM
- Full protection (minimal concentration that exerted full cytoprotection) [2]: 100 to 300 pM
- CMV-promoter-driven expression of V642I-APP, NL-APP, M146L-PS1, or N141I-PS2 holoprotein [3]: not affected

Molecule: EFLIVIKSMAPAGASCLLLLTGEIDLPVKRRA [EF-AGA-HNG]
- concentration of full cytoprotection against FAD genes [1]: 10 pM
- Full protection (minimal concentration that exerted full cytoprotection) [2]: ˜10 pM
- CMV-promoter-driven expression of V642I-APP, NL-APP, M146L-PS1, or N141I-PS2 holoprotein [3]: little or only marginal alteration
- IC50 [4]: ~0.001 nM
- concentration of full neuroprotection against Aβ1-43 [4]: 0.01 nM

Molecule: EFLIVIKSMAPRGFSCLLLLTGEIDLPVKRRA [EF-HNG]
- IC50 [1]: ~0.01 nM
- IC50 [2]: 0.01 to 0.1 nM
- Full protection (minimal concentration that exerted full cytoprotection) [2]: ˜1 nM
- concentration of full neuroprotection against Aβ1-43 [4]: 1 nM
- suppression of Aβ neurotoxicity in the presence of 100 μM EFLIVIKS [4]: could fully suppress Aβ neurotoxicity
- IC50 ([4]; both Calcein fluorescence and WST-8 absorbance assays, read-out: IC50 of cytoprotection against Aβ1-43): ~0.1 nM
- amount of peptide relative to the amount at time zero [5]: virtually unaltered

Molecule: EFLIVIKSMAPRGFSCLLLLTSEIDLPVKRRA [EF-HN]
- potency of cytoprotection against V642I-APP relative to HN [6]: about 100 times
- Full protection (minimal concentration that exerted full cytoprotection) (Aβ and V642I-APP): ˜100 nM
- suppression of Aβ neurotoxicity in the presence of 100 μM EFLIVIKS [4]: could fully suppress Aβ neurotoxicity
- potency of neuroprotection against Aβ relative to HN [4]: about 100 times
- amount of peptide relative to the amount at time zero [5]: virtually unaltered

Molecule: MAPAGASCLLLLTGEIDLPVKRRA [AGA-HNG, reference compound]
- augmentation of the potency of HNG by Ala substitution at both Arg4 and Phe6 ([7]; previously reported [16]): 3-10 times
- concentration of full neuroprotection ([7]; previously reported [16]): 100 to 300 pM
- concentration of full cytoprotection [2]: 100 to 300 pM
- Full protection (minimal concentration that exerted full cytoprotection) [2]: 100 to 300 pM
- CMV-promoter-driven expression of V642I-APP, NL-APP, M146L-PS1, or N141I-PS2 holoprotein [3]: little or only marginal alteration

Molecule: MAPRGF(D-Ser)CLLLLT(D-Ser)EIDLPVKRRA (MAPRGF[dS]CLLLLT[dS]EIDLPVKRRA) [D-Ser7/14 HN]
- cytoprotective action against FAD genes (in words) ([1]; V642I-APP): virtually identical to those of (D-Ser^14)HN
- Full protection (minimal concentration that exerted full cytoprotection) [2]: ˜10 nM

Molecule: MAPRGFSCLLLLT(D-S)EIDLPVKRRA [D-Ser14 HN]
- concentration of full suppression of cell death by FAD mutants ([1]; V642I-APP): 10 nM
- cytoprotective action against FAD genes (in words) ([1]; V642I-APP): virtually identical to that of HNG
- Full protection (minimal concentration that exerted full cytoprotection) [2]: ˜10 nM
- CMV-promoter-driven expression of V642I-APP, NL-APP, M146L-PS1, or N141I-PS2 holoprotein [3]: did not suppress
- concentration of full neuroprotection against Aβ1-43 [4]: 1 to 10 nM
- potency of neuroprotection against Aβ relative to HN [4]: 100-1000 times

Molecule: PRGFSCLLLLTSEIDLP [HN17, Pro3-Pro19 region of HN]
- cytoprotection potency compared with authentic HN (in words) ([7]; as disclosed in [16]): as potent in cytoprotection as authentic HN
